Measured values: patent US20120022142A1, “RNA Interference Mediated Inhibition of Signal Transducer and Activator of Transcription 1 (STAT1) Gene Expression Using Short Interfering Nucleic Acid (siNA)” (Merck Sharp & Dohme Corp., priority 2009, published 2012)
[invAb] = inverted abasic unit; d = 2'-deoxy (DNA); m = 2'-O-methyl; r = 2'-OH (RNA); f = 2'-fluoro

Legend:
[1] = tested on: STAT1 mouse mRNA; experiment: Initial screen of siNAs: STAT1 mRNA knock-down in NIH 3T3 cells (96-well transfection, Taqman RT-PCR); format: cell-based; conditions: 10 nM siNA, 24 hrs, normalized against GAPDH, average of 2 experiments
Method: NIH 3T3 (mouse; ATCC cat# CRL-1658): Cells were cultured at 37° C. in the presence of 5% CO2 and grown in Dulbecco's modified Eagle's medium (DMEM) with 4 mM L-glutamine adjusted to contain 1.5 g/L sodium bicarbonate and 4.5 g/L glucose and supplemented with fetal bovine serum at a final concentration of 10%, 100 μg/mL of streptomycin, and 100 U/mL penicillin.
(§1) Cells were plated in all wells of a tissue-culture treated, 96-well plate at a final count of 5000 cells/well in 100 μL of the appropriate culture media. The cells were cultured for 24 hours after plating at 37° C. in the presence of 5% CO2.
(§2) After 24 hours, complexes containing siNA and RNAiMax were created as follows: A solution of RNAiMax diluted 33-fold in OPTI-MEM was prepared. In parallel, solutions of the siNAs for testing were prepared to a final concentration of 120 nM in OPTI-MEM. After incubation of RNAiMax/OPTI-MEM solution at room temperature for 5 min, an equal volume of the siNA solution and the RNAiMax solution were added together for each of the siNAs.
(§3) This solution was incubated at room temperature for 20 minutes. After incubation, 20 uL of the solution was added to each of the relevant wells. The final concentration of siNA in each well was 10 nM and the final volume of RNAiMax in each well was 0.3 ul.
(§4) The time of incubation with the RNAiMax-siNA complexes was 24 hours and there was no change in media between transfection and harvesting, unless otherwise indicated.
(§5) RNA was extracted from a 96-well plate using the TaqMan® Gene Expression Cells-to-CT™ Kit (Cat# 4399002) with a modified protocol. Briefly, a 60 uL (1 plate) or 110 uL (2 plates) of the Lysis Solution with DNase I was dispensed into each well of the Lysis Buffer Plate (twin.tec full skirt plate). The lysis buffer and stop plates were stored at 4° C. until the cells were washed.
(§6) The culture medium was aspirated and discarded from the wells of the culture plate. 50 uL of chilled DPBS was added to each well, then aspirated and discarded. The lysis was performed automatically using a BioMek FX instrument and method. After the Biomek method was completed, the lysis plate was incubated for 2 min at room temperature. The lysis plate can be stored for 2 hours at 4° C., or at −20° C. or −80° C. for two months.
(§7) Each well of the reverse transcription plate required 10 uL of 2× reverse transcriptase Buffer, 1 uL of 20× reverse transcription enzyme and 2 uL of nuclease-free water. The reverse transcription master mix was prepared by mixing 2× reverse transcription buffer, 20× reverse transcription enzyme mix, and nuclease-free water. 13 uL of the reverse transcription master mix was dispensed into each well of the reverse transcription plate (semi-skirted). A separate reverse transcription plate was prepared for each cell plate. The plate was loaded onto a Biomek NX or Biomek FX Dual-96 and the Biomek method was run. The program is programmed to automatically added 7 uL of lysate from the cell lysis procedure described above into each well of the reverse transcription plate. The plate is sealed and spun on a centrifuge (1000 rpm for 30 seconds) to settle the contents to the bottom of the reverse transcription plate. The plate is placed in a thermocycler at 37° C. for 60 min, 95° C. for 5 min, and 4° C. until the plate is removed from the thermocycler. Upon removal, if not used immediately, the plate was frozen at −20° C.
(§8) A series of probes and primers were used to detect the various mRNA transcripts of the genes of β-Actin (human cell line only), and of STAT1 and GAPDH in mouse and human cell lines. All Taqman probes and primers for the experiments here-in described were supplied as pre-validated sets by Applied Biosystems, Inc. (see Table 2).
The assays were performed on an ABI 7900 instrument, according to the manufacturer's instructions. […]

[2] = tested on: STAT1 human mRNA; experiment: Initial screen of siNAs: STAT1 mRNA knock-down in A549 cells (96-well transfection, Taqman RT-PCR); format: cell-based; conditions: 10 nM siNA, 24 hrs, normalized against GAPDH, average of 2 experiments
Method: A549 (human; ATCC cat# CCL-185): Cells were cultured at 37° C. in the presence of 5% CO2 and grown in Ham's F12K medium with 2 mM L-glutamine adjusted to contain 1.5 g/L sodium bicarbonate and supplemented with fetal bovine serum at a final concentration of 10% and 100 μg/mL of streptomycin and 100 U/mL penicillin.
as §1, §2, §3, §4, §5, §6, §7, §8
The assays were performed on an ABI 7900 instrument, according to the manufacturer's instructions.
Within each experiment, the baseline was set in the exponential phase of the amplification curve, and based on the intersection point of the baselines with the amplification curve, a Ct value was assigned by the instrument. […]

Substance | % KD Mouse [1] [%] | % KD Human [2] [%]
25364-DC: STAT1 siNA duplex, human target site 674; modified strands SEQ ID NO: 65 and 66 (chain 1 GUCUGAAGGAAGAAAGGAATT; chain 2 UUCCUUUCUUCCUUCAGACUU; chain 1: sugars from the 5' end d1 f3 d17, [invAb] at 5' end, 3' end, backbone not given here; chain 2: sugars from the 5' end r3 f12 m3 f1 m2, backbone not given here) | 83 | 88
25361-DC: STAT1 siNA duplex, human target site 1104; modified strands SEQ ID NO: 59 and 60 (chain 1 GCCCAAUGCUUGCUUGGAUTT; chain 2 AUCCAAGCAAGCAUUGGGCUU; chain 1: DNA at AGT, 2'-fluoro at CU, [invAb] at 5' end, 3' end, backbone not given here; chain 2: sugars from the 5' end rrrfmmmfmmmfmffmmmfmm, backbone not given here) | 35 | 92
25347-DC: STAT1 siNA duplex, human target site 2318; modified strands SEQ ID NO: 31 and 32 (chain 1 CUGAGAAUAUUCCUGAGAATT; chain 2 UUCUCAGGAAUAUUCUCAGUU; chain 1: DNA at AGT, 2'-fluoro at CU, [invAb] at 5' end, 3' end, backbone not given here; chain 2: sugars from the 5' end rrrffmmmmmfmfffffmmmm, backbone not given here) | 57 | 93
25352-DC: STAT1 siNA duplex, human target site 540; modified strands SEQ ID NO: 41 and 42 (chain 1 GCUGGAUGAUCAAUAUAGUTT; chain 2 ACUAUAUUGAUCAUCCAGCUU; chain 1: DNA at AGT, 2'-fluoro at CU, [invAb] at 5' end, 3' end, backbone not given here; chain 2: sugars from the 5' end rrrmfmffmmffmfffmmfmm, backbone not given here) | 34 | 91
25353-DC: STAT1 siNA duplex, human target site 2253; modified strands SEQ ID NO: 43 and 44 (chain 1 CACGAAGAAAGAACUUUCUTT; chain 2 AGAAAGUUCUUUCUUCGUGUU; chain 1: DNA at AGT, 2'-fluoro at CU, [invAb] at 5' end, 3' end, backbone not given here; chain 2: sugars from the 5' end rrrmmmffffffffffmfmmm, backbone not given here) | 79 | 86
25358-DC: STAT1 siNA duplex, human target site 1020; modified strands SEQ ID NO: 53 and 54 (chain 1 CACUGAACUUACCCAGAAUTT; chain 2 AUUCUGGGUAAGUUCAGUGUU; chain 1: DNA at AGT, 2'-fluoro at CU, [invAb] at 5' end, 3' end, backbone not given here; chain 2: sugars from the 5' end rrrffmmmfmmmfffmmfmmm, backbone not given here) | 17 | 79
25355-DC: STAT1 siNA duplex, human target site 1126; modified strands SEQ ID NO: 47 and 48 (chain 1 CUGCAGAACUGGUUCACUATT; chain 2 UAGUGAACCAGUUCUGCAGUU; chain 1: DNA at AGT, 2'-fluoro at CU, [invAb] at 5' end, 3' end, backbone not given here; chain 2: sugars from the 5' end rrrfmmmffmmffffmfmmmm, backbone not given here) | 35 | 90
25371-DC: STAT1 siNA duplex, human target site 432; modified strands SEQ ID NO: 79 and 80 (chain 1 CAUGGAAAUCAGACAGUACTT; chain 2 GUACUGUCUGAUUUCCAUGUU; chain 1: DNA at AGT, 2'-fluoro at CU, [invAb] at 5' end, 3' end, backbone not given here; chain 2: sugars from the 5' end rrrffmfffmmfffffmfmmm, backbone not given here) | 85 | 89
25363-DC: STAT1 siNA duplex, human target site 480; modified strands SEQ ID NO: 63 and 64 (chain 1 GGAGCACGCUGCCAAUGAUTT; chain 2 AUCAUUGGCAGCGUGCUCCUU; chain 1: DNA at AGT, 2'-fluoro at CU, [invAb] at 5' end, 3' end, backbone not given here; chain 2: sugars from the 5' end rrrmffmmfmmfmfmffffmm, backbone not given here) | 72 | 83
25359-DC: STAT1 siNA duplex, human target site 268; modified strands SEQ ID NO: 55 and 56 (chain 1 CGACAGUCUUGGCACCUAATT; chain 2 UUAGGUGCCAAGACUGUCGUU; chain 1: DNA at AGT, 2'-fluoro at CU, [invAb] at 5' end, 3' end, backbone not given here; chain 2: sugars from the 5' end rrrmmfmffmmmmffmffmmm, backbone not given here) | 47 | 88
